Measured values from US20260137819A1 (Radionetics Oncology, Inc., priority 2022, published 2026).
Starred links: 1 amine or outer side, 2 acyl side, 3 side chain; linkers in the order of their positions; H or OH if unused. Non-standard residues stand in square brackets, D forms with d. Residues, ends and D or L forms follow the SMILES beside them. Groups on a side chain read outwards from the residue. *: point of attachment. X1 = COc1cc2c(cc1-c1cccc(N*)c1)-c1c(c(C(=O)N3CCOCC3(C)C)nn1-c1cc(Cl)cc(Cl)c1)CO2; DOTA = O=C(O)CN1CCN(CC(=O)O)CCN(CC(=O)*)CCN(CC(=O)O)CC1; Suc = O=C(CCC(=O)[*:2])[*:1]; Sar = CNCC(=O)O

The molecules below were run against T1, human follicle-stimulating hormone receptor (FSHR) (Homo sapiens, UniProt P23945) (assay: Measurement of agonist cAMP production by activation of human FSHR). Conditions: CHO-K1 human FSHR cells, 30 minutes at 37° C., HTRF cAMP kit; read-out: hFSHR Agonist cAMP EC50.
T1 construct: host or cells: CHO-K1
T1 sequence (P23945 18-695): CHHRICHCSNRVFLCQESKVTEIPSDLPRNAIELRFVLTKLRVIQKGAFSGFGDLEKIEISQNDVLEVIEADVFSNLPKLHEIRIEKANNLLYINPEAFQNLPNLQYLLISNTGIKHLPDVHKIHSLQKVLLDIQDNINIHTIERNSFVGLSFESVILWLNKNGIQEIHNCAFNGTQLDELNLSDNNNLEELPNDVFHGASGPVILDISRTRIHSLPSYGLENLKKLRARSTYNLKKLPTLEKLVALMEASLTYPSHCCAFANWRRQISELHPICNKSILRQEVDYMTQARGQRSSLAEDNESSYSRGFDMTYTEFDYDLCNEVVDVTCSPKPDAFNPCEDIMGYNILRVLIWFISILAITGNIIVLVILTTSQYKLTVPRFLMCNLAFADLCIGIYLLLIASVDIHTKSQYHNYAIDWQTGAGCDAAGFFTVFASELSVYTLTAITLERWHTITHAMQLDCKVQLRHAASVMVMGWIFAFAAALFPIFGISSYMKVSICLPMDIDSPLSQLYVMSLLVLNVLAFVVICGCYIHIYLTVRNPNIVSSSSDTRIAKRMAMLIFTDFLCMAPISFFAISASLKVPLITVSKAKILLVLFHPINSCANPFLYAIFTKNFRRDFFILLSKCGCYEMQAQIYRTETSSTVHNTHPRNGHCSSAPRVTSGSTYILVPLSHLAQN
Format: cell-based
In short: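 cAMP output was measured by HTRF after 30 min at 37 °C agonist exposure (0–10,000 nM final) in stably FSHR-transfected CHO-K1 cells. Lysate cAMP was read off a standard curve and fitted to obtain half-maximal EC50.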

Question: With `COc1cc2c(cc1-c1cccc(NC(=O)CCC(=O)N[C@H](C)C(=O)N[C@H](CCC(=O)O)C(=O)N[C@H](CCC(=O)O)C(=O)N[C@H](CCC(=O)O)C(=O)N[C@H](CCC(=O)O)C(=O)N[C@H](CCCCNC(=O)CN3CCN(CC(=O)O)CCN(CC(=O)O)CCN(CC(=O)O)CC3)C(=O)N[C@H](C)C(N)=O)c1)-c1c(c(C(=O)N3CCOCC3(C)C)nn1-c1cc(Cl)cc(Cl)c1)CO2` [Compound 92, 2,2′,2″-(10-((8R,11R,14R,17R,20R,23R)-8-(((R)-1-amino-1-oxopropan-2yl)carbamoyl)-11,14,17,20-tetrakis(2-carboxyethyl)-28-((3-(1-(3,5-dichlorophenyl)-3-(3,3-dimethylmorpholine-4-carbonyl)-7-methoxy-1,4-dihydrochromeno[4,3-c]pyrazol-8-yl)phenyl)amino)-23-methyl-2,10,13,16,19,22,25,28-octaoxo-3,9,12,15,18,21,24-heptaazaoctacosyl)-1,4,7,10-tetraazacyclododecane-1,4,7-triyl)triacetic acid] ({X1-Suc}-[dA][dE][dE][dE][dE][dK](DOTA)[dA]-NH2) as the molecule, how does the EC50 read?
Answer: Its EC50 is 10 to 100 nM.

Question: `COc1cc2c(cc1-c1cncc(NC(=O)CCNC(=O)[C@@H](CC(=O)O)NC(=O)[C@@H](CC(=O)O)NC(=O)CC[C@@H](NC(=O)CN3CCN(CC(=O)O)CCN(CC(=O)O)CCN(CC(=O)O)CC3)C(=O)O)c1)-c1c(c(C(=O)N3CCOCC3(C)C)nn1-c1cc(Cl)cc(Cl)c1)CO2` [Compound 93] was tested. Which EC50 did it give?
Answer: The EC50 was 10 to 100 nM.

Question: Which EC50 does the source give for `COc1cc2c(cc1-c1cncc(NC(=O)CCNC(=O)[C@@H](CC(=O)O)NC(=O)[C@@H](CC(=O)O)NC(=O)CN3CCN(CC(=O)O)CCN(CC(=O)O)CCN(CC(=O)O)CC3)c1)-c1c(c(C(=O)N3CCOCC3(C)C)nn1-c1cc(Cl)cc(Cl)c1)CO2` [Compound 94] here?
Answer: Its EC50 is 10 to 100 nM.

Question: How did the EC50 turn out when `COc1cc2c(cc1-c1cccc(NC(=O)CCC(=O)NCCCC[C@@H](NC(=O)[C@@H](CO)NC(=O)[C@@H](CC(N)=O)NC(=O)[C@@H](C)NC(=O)CN3CCN(CC(=O)O)CCN(CC(=O)O)CCN(CC(=O)O)CC3)C(=O)N[C@H](CC(N)=O)C(=O)N[C@H](CO)C(=O)N[C@H](C)C(N)=O)c1)-c1c(c(C(=O)N3CCOCC3(C)C)nn1-c1cc(Cl)cc(Cl)c1)CO2` [Compound 97] ({DOTA}-[dA][dN][dS][dK]([Suc-X1])[dN][dS][dA]-NH2) was run?
Answer: Its EC50 is 10 to 100 nM.

Question: `COc1cc2c(cc1-c1cccc(NC(=O)CCC(=O)N(C)CC(=O)N(C)CC(=O)N(C)CC(=O)N[C@H](CCCCNC(=O)CN3CCN(CC(=O)O)CCN(CC(=O)O)CCN(CC(=O)O)CC3)C(=O)N[C@H](CCC(=O)O)C(=O)N[C@H](Cc3ccc(O)cc3)C(=O)N[C@H](CCCCN)C(=O)N[C@H](CCC(=O)O)C(=O)N[C@H](CCC(=O)O)C(=O)N[C@H](CCC(=O)O)C(=O)N[C@H](CCC(=O)O)C(=O)N[C@H](CCCCN)C(N)=O)c1)-c1c(c(C(=O)N3CCOCC3(C)C)nn1-c1cc(Cl)cc(Cl)c1)CO2` [Compound 98] ({X1-Suc}-[Sar][Sar][Sar][dK](DOTA)[dE][dY][dK][dE][dE][dE][dE][dK]-NH2) was tested. Which EC50 did it give?
Answer: Its EC50 is 10 to 100 nM.

Question: With `COc1cc2c(cc1-c1cncc(NC(=O)CCNC(=O)[C@@H](CC(=O)O)NC(=O)[C@@H](CC(=O)O)NC(=O)[C@H](N)CCCNC(=O)CN3CCN(CC(=O)O)CCN(CC(=O)O)CCN(CC(=O)O)CC3)c1)-c1c(c(C(=O)N3CCOCC3(C)C)nn1-c1cc(Cl)cc(Cl)c1)CO2` [Compound 99, 2,2′,2″-(10-((7R,10R,13R)-7-amino-10,13-bis(carboxymethyl)-18-((5-(1-(3,5dichlorophenyl)-3-(3,3-dimethylmorpholine-4-carbonyl)-7-methoxy-1,4-dihydrochromeno|4,3-c|pyrazol-8-yl)pyridin-3-yl)amino)-2,8,11,14,18-pentaoxo-3,9,12,15-tetraazaoctadecyl)-1,4,7,10-tetraazacyclododecane-1,4,7-triyl)triacetic acid] as the molecule, how does the EC50 read?
Answer: The EC50 was 10 to 100 nM.

Same assay, conditions: hFSHR Agonist cAMP EC50, CHO-K1 human FSHR cells, 30 minutes at 37° C., HTRF cAMP kit

Question: Which EC50 does the source give for `COc1cc2c(cc1-c1cccc(NC(=O)CCC(=O)NCCCC[C@@H](NC(=O)[C@@H](C)NC(=O)[C@@H](CCC(=O)O)NC(=O)[C@@H](C)NC(=O)[C@@H](CCC(=O)O)NC(=O)[C@@H](C)NC(=O)CN3CCN(CC(=O)O)CCN(CC(=O)O)CCN(CC(=O)O)CC3)C(=O)N[C@H](C)C(N)=O)c1)-c1c(c(C(=O)N3CCOCC3(C)C)nn1-c1cc(Cl)cc(Cl)c1)CO2` [Compound 95] here?
Answer: The EC50 was 10 to 100 nM.
